Test results: ChEMBL document CHEMBL5108044, “Discovery of a Novel Potent STAT3 Inhibitor HP590 with Dual p-Tyr705/Ser727 Inhibitory Activity for Gastric Cancer Treatment” (J Med Chem, 2022)

Legend:
[1] = molecular target: Signal transducer and activator of transcription 3 (Homo sapiens, UniProt P40763); experiment: Inhibition of human recombinant STAT3 (127 to 722 residues) transcriptional activity expressed in HEK293T cells in presence of IL-6 by Dual-luciferase reporter gene assay; type: cell-based
AGS = experiment: Antiproliferative activity against human AGS cells assessed as reduction in cell viability incubated for 72 hrs by MTS assay; type: functional, cell-based
[2] = Inhibition of ATP production in human MKN-45 cells incubated for 20 to 24 hrs by ATP assay kit method; type: functional, cell-based
MKN-45 = experiment: Antiproliferative activity against human MKN-45 cells assessed as reduction in cell viability incubated for 72 hrs by MTS assay; type: functional, cell-based; conditions: MKN-45, 72 h
MGC-803 = experiment: Antiproliferative activity against human MGC-803 cells assessed as reduction in cell viability incubated for 72 hrs by MTS assay; type: functional, cell-based; conditions: MGC-803, 72 h

Sequence of Signal transducer and activator of transcription 3 (P40763 whole entry, the tested form may be a part): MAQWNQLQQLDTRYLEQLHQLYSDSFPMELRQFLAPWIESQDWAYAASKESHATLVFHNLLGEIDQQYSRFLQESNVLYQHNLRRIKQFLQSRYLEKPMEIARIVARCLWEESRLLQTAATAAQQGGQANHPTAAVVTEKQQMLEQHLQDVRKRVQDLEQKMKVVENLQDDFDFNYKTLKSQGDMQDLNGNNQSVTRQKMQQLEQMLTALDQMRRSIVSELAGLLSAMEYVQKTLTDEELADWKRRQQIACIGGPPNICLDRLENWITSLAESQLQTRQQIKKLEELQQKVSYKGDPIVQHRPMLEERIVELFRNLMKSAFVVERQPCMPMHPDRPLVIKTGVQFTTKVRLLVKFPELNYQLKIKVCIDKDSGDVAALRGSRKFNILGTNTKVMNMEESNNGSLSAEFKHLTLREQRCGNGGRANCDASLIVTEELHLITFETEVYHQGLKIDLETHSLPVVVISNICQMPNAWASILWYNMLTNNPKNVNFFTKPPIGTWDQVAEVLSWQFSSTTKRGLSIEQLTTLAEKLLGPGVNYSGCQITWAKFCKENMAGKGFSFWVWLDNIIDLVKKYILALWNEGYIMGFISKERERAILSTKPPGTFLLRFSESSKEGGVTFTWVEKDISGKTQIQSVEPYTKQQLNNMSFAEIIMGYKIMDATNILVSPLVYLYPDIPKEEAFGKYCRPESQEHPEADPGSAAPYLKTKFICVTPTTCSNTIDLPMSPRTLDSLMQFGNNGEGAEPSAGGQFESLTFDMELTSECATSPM

Row | SMILES | IC50 [1] [nM] | IC50 (AGS) [nM] | IC50 [2] [nM] | IC50 (MKN-45) [nM] | IC50 (MGC-803) [nM]
1 | O=C(c1ccc(-c2nc(-c3cncs3)no2)nc1)N1CCN(Cc2ccc(OCC(F)(F)F)cc2)CC1 | > 1000 | – | – | – | –
2 | O=C(c1ccc(-c2nc(-c3ccc(C(F)(F)F)cc3)co2)nc1)N1CCN(Cc2ccc(OCC(F)(F)F)cc2)CC1 | 94.1 | – | – | – | –
3 | Cc1ccc(CN2CCN(C(=O)c3ccc(-c4nc(-c5ccc(C(F)(F)F)cc5)no4)nc3)CC2)cc1 | 182 | – | – | – | –
4 | O=C(c1ccc(-c2nc(-c3cccc(C(F)(F)F)c3)no2)nc1)N1CCN(Cc2ccc(OCC(F)(F)F)cc2)CC1 | 130 | – | – | – | –
5 | O=C(c1ccc(-c2nc(-c3ccc(Br)cc3)no2)nc1)N1CCN(Cc2ccc(OCC(F)(F)F)cc2)CC1 | 93.2 | – | – | – | –
6 | O=C(c1cc(-c2nc(-c3ccc(C(F)(F)F)cc3)no2)ccn1)N1CCN(Cc2ccc(OCC(F)(F)F)cc2)CC1 | 32.3 | 8.7 | 87.6 | 153 | 13.1
7 | O=C(c1ccc(-c2nc(-c3ccc(C(F)(F)F)cc3)no2)nc1)N1CCN(Cc2ccccc2OC(F)(F)F)CC1 | > 1000 | – | – | – | –
8 | CC(C)(C)c1ccc(-c2noc(-c3ccc(C(=O)N4CCN(Cc5ccc(OCC(F)(F)F)cc5)CC4)cn3)n2)cc1 | > 1000 | – | – | – | –
9 | O=C(c1ccc(-c2nc(-c3cccc(F)c3)no2)nc1)N1CCN(Cc2ccc(OCC(F)(F)F)cc2)CC1 | 177 | – | – | – | –
10 | Cc1ccc(-c2noc(-c3ccc(C(=O)N4CCN(Cc5ccc(OCC(F)(F)F)cc5)CC4)cn3)n2)cc1 | 258 | – | – | – | –
11 | O=C(c1ccc(-c2nc(-c3ccc(C(F)(F)F)cc3)no2)nc1)N1CCN(Cc2ccc(Cl)cc2)CC1 | 108 | – | – | – | –
12 | CCCN1CCN(C(=O)c2ccc(-c3nc(-c4ccc(C(F)(F)F)cc4)no3)nc2)CC1 | 533 | – | – | – | –
13 | O=C(c1ccc(-c2nc(-c3ncccn3)no2)nc1)N1CCN(Cc2ccc(OCC(F)(F)F)cc2)CC1 | > 1000 | – | – | – | –
14 | O=C(c1ccc(-c2nc(-c3ccc(C(F)(F)F)cc3)no2)nc1)N1CCN(Cc2ccc(NCC(F)(F)F)cc2)CC1 | > 1000 | – | – | – | –
15 | O=C(c1ccc(-c2nc(-c3ccc(C(F)(F)F)cc3)no2)nc1)N1CCN(Cc2ccc(Br)cc2)CC1 | 40.2 | 77.8 | 520 | 108 | 67.6
16 | O=C(c1ccc(-c2nc(-c3ccccc3C(F)(F)F)no2)nc1)N1CCN(Cc2ccc(OCC(F)(F)F)cc2)CC1 | > 1000 | – | – | – | –
17 | O=C(c1ccc(-c2nc(-c3ccc(C(F)(F)F)cc3)no2)nc1)N1CCN(Cc2cccc(OC(F)(F)F)c2)CC1 | 325 | – | – | – | –
18 | O=C(c1cccc(-c2nc(-c3ccc(C(F)(F)F)cc3)no2)c1)N1CCN(Cc2ccc(OCC(F)(F)F)cc2)CC1 | 52.1 | 27.1 | 55.9 | 41.6 | 28.1
19 | CC(=O)c1cc2c(o1)C(=O)c1ccccc1C2=O [NAPABUCASIN] | – | 437 | – | 3940 | 872
20 | CC(=O)Oc1ccc(CN2CCN(C(=O)c3ccc(-c4nc(-c5ccc(C(F)(F)F)cc5)no4)nc3)CC2)cc1 | 306 | – | – | – | –
21 | O=C(c1ccc(-c2nc(-c3cccs3)no2)nc1)N1CCN(Cc2ccc(OCC(F)(F)F)cc2)CC1 | > 1000 | – | – | – | –
22 | O=C(c1ccc(OC(F)(F)F)cc1)N1CCN(C(=O)c2ccc(-c3nc(-c4ccc(C(F)(F)F)cc4)no3)nc2)CC1 | > 1000 | – | – | – | –
23 | CCN1CCN(C(=O)c2ccc(-c3nc(-c4ccc(C(F)(F)F)cc4)no3)nc2)CC1 | > 1000 | – | – | – | –
24 | O=C(c1ccc(-c2nc(-c3ccc(F)cc3)no2)nc1)N1CCN(Cc2ccc(OCC(F)(F)F)cc2)CC1 | 123 | – | – | – | –
25 | O=C(c1ncc(-c2nc(-c3ccc(C(F)(F)F)cc3)no2)s1)N1CCN(Cc2ccc(OCC(F)(F)F)cc2)CC1 | > 1000 | – | – | – | –
26 | O=C(/C=C/c1ccc(OC(F)(F)F)cc1)N1CCN(C(=O)c2ccc(-c3nc(-c4ccc(C(F)(F)F)cc4)no3)nc2)CC1 | 173 | – | – | – | –
27 | N#Cc1ccc(CN2CCN(C(=O)c3ccc(-c4nc(-c5ccc(C(F)(F)F)cc5)no4)nc3)CC2)cc1 | 477 | – | – | – | –
28 | O=C(c1cnc(-c2noc(-c3ccc(C(F)(F)F)cc3)n2)cn1)N1CCN(Cc2ccc(OCC(F)(F)F)cc2)CC1 | 58 | 27.2 | 242 | 49.5 | 32.4

Row | SMILES | IC50 [1] [nM] | IC50 (AGS) [nM] | IC50 [2] [nM] | IC50 (MKN-45) [nM] | IC50 (MGC-803) [nM]
29 | O=C(Cc1ccc(OC(F)(F)F)cc1)N1CCN(C(=O)c2ccc(-c3nc(-c4ccc(C(F)(F)F)cc4)no3)nc2)CC1 | 359 | – | – | – | –
30 | O=C(c1ccc(-c2nc(-c3ccccc3)no2)nc1)N1CCN(Cc2ccc(OCC(F)(F)F)cc2)CC1 | > 1000 | – | – | – | –
31 | O=C(c1ccc(-c2nc(-c3ccc(C(F)(F)F)cc3)no2)nc1)N1CCN(Cc2ccc(F)cc2)CC1 | 304 | – | – | – | –
32 | O=C(c1ccc(-c2nc(-c3ccc(C(F)(F)F)cc3)no2)nc1)N1CCN(Cc2ccc(OC(F)(F)F)cc2)CC1 | 63.6 | 59.8 | 598 | 16.4 | 12.7
33 | O=C(c1ccc(-c2cn(-c3ccc(C(F)(F)F)cc3)nn2)nc1)N1CCN(Cc2ccc(OCC(F)(F)F)cc2)CC1 | 113 | – | – | – | –
34 | O=C(c1ccc(-c2nc(-c3ccc(C(F)(F)F)c(F)c3)no2)nc1)N1CCN(Cc2ccc(OCC(F)(F)F)cc2)CC1 | 40.2 | 21.5 | 218 | 21.2 | 22.2
35 | O=C(c1ncccc1-c1nc(-c2ccc(C(F)(F)F)cc2)no1)N1CCN(Cc2ccc(OCC(F)(F)F)cc2)CC1 | > 1000 | – | – | – | –
36 | O=C(c1ccc(-c2nc(-c3ccc(Cl)cc3)no2)nc1)N1CCN(Cc2ccc(OCC(F)(F)F)cc2)CC1 | 271 | – | – | – | –
37 | O=C(c1ccc(-c2nc(-c3ccc(C(F)(F)F)cc3)no2)nc1)N1CCN(Cc2ccc(Br)cc2F)CC1 | 564 | – | – | – | –
38 | CS(=O)(=O)c1ccc(CN2CCN(C(=O)c3ccc(-c4nc(-c5ccc(C(F)(F)F)cc5)no4)nc3)CC2)cc1 | 273 | – | – | – | –
39 | O=C(c1ccccc1-c1nc(-c2ccc(C(F)(F)F)cc2)no1)N1CCN(Cc2ccc(OCC(F)(F)F)cc2)CC1 | > 1000 | – | – | – | –
40 | COc1ccc(-c2noc(-c3ccc(C(=O)N4CCN(Cc5ccc(OCC(F)(F)F)cc5)CC4)cn3)n2)cc1 | 113 | – | – | – | –
41 | CC(C)(C)c1ccc(CN2CCN(C(=O)c3ccc(-c4nc(-c5ccc(C(F)(F)F)cc5)no4)nc3)CC2)cc1 | 88.1 | 67.6 | 200 | 54.5 | 31.8
42 | O=C(c1ccc(-c2nc(-c3ccc(C(F)(F)F)cc3)cs2)nc1)N1CCN(Cc2ccc(OCC(F)(F)F)cc2)CC1 | 516 | – | – | – | –
43 | O=C(c1ccc(-c2nc(-c3ccc(C(F)(F)F)cc3)no2)nc1)N1CCN(Cc2ccccc2OCC(F)(F)F)CC1 | > 1000 | – | – | – | –
44 | O=C(c1ccc(-c2nc(-c3ccc(C(F)(F)F)cc3)no2)cn1)N1CCN(Cc2ccc(OCC(F)(F)F)cc2)CC1 | 75.9 | 22.8 | 97.8 | 24.6 | 15.3
45 | CN1CCN(C(=O)c2ccc(-c3nc(-c4ccc(C(F)(F)F)cc4)no3)nc2)CC1 | 2790 | – | – | – | –
46 | O=C(c1ccc(-c2nc(-c3ccc(C(F)(F)F)cc3C(F)(F)F)no2)nc1)N1CCN(Cc2ccc(OCC(F)(F)F)cc2)CC1 | > 1000 | – | – | – | –
47 | O=C(c1ccc(-c2nc(-c3ccc(C(F)(F)F)cc3)no2)s1)N1CCN(Cc2ccc(OCC(F)(F)F)cc2)CC1 | 167 | – | – | – | –
48 | O=C(c1ccc(-c2nc(-c3ccc(C(F)(F)F)cc3)no2)nc1)N1CCN(Cc2ccc(OCC(F)(F)F)cc2)CC1 | 37.4 | 8.4 | 72.5 | 18.4 | 11.5
49 | O=C(c1ccc(-c2nc(-c3ccc(C(F)(F)F)cc3)no2)nc1)N1CCN(Cc2ccc(Br)c(F)c2)CC1 | 296 | – | – | – | –
50 | O=C(c1ccc(-c2nc(-c3ccc(C(F)(F)F)cc3)no2)nc1)N1CCN(Cc2c(F)cc(Br)cc2F)CC1 | > 1000 | – | – | – | –
51 | O=C(c1ccc(-c2nc(-c3ccc(C(F)(F)F)cc3)no2)nc1)N1CCN(Cc2cccc(OCC(F)(F)F)c2)CC1 | 803 | – | – | – | –
52 | COc1ccc(CN2CCN(C(=O)c3ccc(-c4nc(-c5ccc(C(F)(F)F)cc5)no4)nc3)CC2)cc1 | 147 | – | – | – | –
53 | O=C(c1ccc(-c2nc(-c3ccccc3F)no2)nc1)N1CCN(Cc2ccc(OCC(F)(F)F)cc2)CC1 | > 1000 | – | – | – | –
54 | Nc1ccc(CN2CCN(C(=O)c3ccc(-c4nc(-c5ccc(C(F)(F)F)cc5)no4)nc3)CC2)cc1 | > 1000 | – | – | – | –
55 | O=C(c1ccc(-c2nc(-c3ccc(OC(F)(F)F)cc3)no2)nc1)N1CCN(Cc2ccc(OCC(F)(F)F)cc2)CC1 | 60.2 | 23.5 | 93.2 | 36.4 | 23.3
